Test results taken from US6864076B2, “Antifungal proteins, DNA coding therefore, and hosts incorporating same” (Syngenta Mogen B.V., priority 1997, dated 2005).

Columns and labels:
Experiment in all cases: Oxidase activity (4-AAP/peroxidase, H2O2 production at 510 nm), Michaelis-Menten kinetics with glucose
[1] = target: glucose oxidase (GOX) from Aspergillus niger (Sigma, G 2133) (Aspergillus niger, UniProt P13006); format: biochemical; conditions: substrate glucose, 50 mM potassium phosphate pH 7.0, 25 μM FAD, 45 ng GOX per assay
glucose oxidase (GOX) from Aspergillus niger (Sigma, G 2133), sequence (P13006 17-605): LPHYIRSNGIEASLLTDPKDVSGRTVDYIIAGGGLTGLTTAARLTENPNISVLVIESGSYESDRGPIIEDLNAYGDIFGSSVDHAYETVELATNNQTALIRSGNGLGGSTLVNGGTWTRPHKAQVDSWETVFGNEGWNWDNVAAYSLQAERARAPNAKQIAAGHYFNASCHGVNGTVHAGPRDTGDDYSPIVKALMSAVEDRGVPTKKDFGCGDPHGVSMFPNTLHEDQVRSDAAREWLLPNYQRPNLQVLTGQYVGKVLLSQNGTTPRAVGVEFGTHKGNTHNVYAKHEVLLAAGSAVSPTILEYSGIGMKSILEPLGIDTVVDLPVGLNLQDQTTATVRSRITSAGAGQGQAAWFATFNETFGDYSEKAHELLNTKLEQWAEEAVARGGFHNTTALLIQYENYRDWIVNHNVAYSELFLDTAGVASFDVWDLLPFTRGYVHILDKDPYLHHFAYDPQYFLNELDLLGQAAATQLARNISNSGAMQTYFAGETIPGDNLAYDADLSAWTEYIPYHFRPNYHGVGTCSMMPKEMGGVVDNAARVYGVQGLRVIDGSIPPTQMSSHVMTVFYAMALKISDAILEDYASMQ
Experimental: (§1) Oxidase activity was measured utilizing the reagent 4-amino-antipyrine (4-AAP), based on Gallo, 1981 (Gallo, Methods in Enzymology, 71:665-668, 1981). A reaction volume of 500 μl contained 50 mM potassium phosphate buffer pH 7.0, 25 μM FAD, 10 mM NaN3, 0.01% Triton X-100, 6 mM 2,4,6,tribromohydroxybenzoic acid, 2 mM 4-AAP, and 10 units horseradish peroxidase. Hydrogenperoxide production was measured at 510 nm. Known amounts of hydrogen peroxide were included for calibration.

[2] = target: T1, WL64 carbohydrate oxidase from lettuce (Lactuca sativa), SEQ ID NO: 58 (Lactuca sativa, UniProt Q8SA60); format: biochemical, lettuce (Lactuca sativa cv. Lollo bionda); conditions: substrate glucose; 50 mM potassium phosphate pH 7.0, 25 μM FAD; 29 ng WL64 per assay; per mg protein
T1 sequence (Q8SA60 28-540): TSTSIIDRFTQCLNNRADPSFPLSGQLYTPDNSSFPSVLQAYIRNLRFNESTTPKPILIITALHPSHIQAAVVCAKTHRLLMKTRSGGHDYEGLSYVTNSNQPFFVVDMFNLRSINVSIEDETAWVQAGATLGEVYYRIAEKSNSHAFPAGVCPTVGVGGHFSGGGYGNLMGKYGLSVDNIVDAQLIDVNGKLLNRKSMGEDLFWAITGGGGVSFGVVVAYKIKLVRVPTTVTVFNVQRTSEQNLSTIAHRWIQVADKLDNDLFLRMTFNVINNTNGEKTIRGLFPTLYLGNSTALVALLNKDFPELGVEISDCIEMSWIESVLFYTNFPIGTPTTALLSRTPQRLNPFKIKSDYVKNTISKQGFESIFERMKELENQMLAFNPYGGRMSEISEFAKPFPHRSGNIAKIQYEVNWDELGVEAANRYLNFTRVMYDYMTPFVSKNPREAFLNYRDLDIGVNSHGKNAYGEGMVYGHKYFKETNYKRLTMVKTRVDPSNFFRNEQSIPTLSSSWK
Experimental: as §1

[3] = target: T2, MS59 carbohydrate oxidase from sunflower (Helianthus annuus), SEQ ID NO: 16 (Helianthus annuus, UniProt A0A9K3EIF7); format: biochemical, sunflower (Helianthus annuus cv. zebulon); conditions: substrate glucose; 50 mM potassium phosphate pH 7.0, 25 μM FAD; 17 ng MS59 per assay; per mg protein
T2 sequence (A0A9K3EIF7 29-538): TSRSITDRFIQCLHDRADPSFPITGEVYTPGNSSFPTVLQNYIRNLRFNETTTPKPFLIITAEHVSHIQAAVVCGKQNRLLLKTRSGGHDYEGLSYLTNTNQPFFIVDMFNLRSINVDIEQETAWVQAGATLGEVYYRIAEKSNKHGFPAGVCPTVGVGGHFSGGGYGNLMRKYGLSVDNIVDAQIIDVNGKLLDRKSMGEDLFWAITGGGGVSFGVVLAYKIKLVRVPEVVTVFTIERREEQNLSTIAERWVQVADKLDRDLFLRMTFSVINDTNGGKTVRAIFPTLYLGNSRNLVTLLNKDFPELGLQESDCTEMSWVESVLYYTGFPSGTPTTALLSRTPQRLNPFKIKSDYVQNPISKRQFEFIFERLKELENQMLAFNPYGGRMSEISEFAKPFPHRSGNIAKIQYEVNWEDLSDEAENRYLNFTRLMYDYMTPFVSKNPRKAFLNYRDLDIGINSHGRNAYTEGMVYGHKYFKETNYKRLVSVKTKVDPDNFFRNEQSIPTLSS
Experimental: as §1

OC[C@H]1OC(O)[C@H](O)[C@@H](O)[C@@H]1O (stereo partly shown) [Glucose, glucose]
Km ([1]; Lineweaver-Burk): 359 µM
Vmax ([1]; per mg protein): 9.7 μmolH2O2/min/mg
Vmax [2]: 5.7 μmolH2O2/min/mg
Vmax [3]: 16.8 μmolH2O2/min/mg
